Reference: ChEMBL document CHEMBL5120771, “Synthesis, equilibrium, and biological study of a C-7 glucose boronic acid derivative as a potential candidate for boron neutron capture therapy” (Bioorg Med Chem, 2022)

Legend:
D54 cell line = experiment: Cytotoxicity against human D54 cells assessed as cell killing at 1 mM measured after 72 hrs by MTT assay; assay type: functional
[1] = Drug uptake in human fibroblasts assessed as boron accumulation at 1 mM measured after 24 hrs per mg of cell pellet by ICP-MS analysis (reference value: 0.30 +/- 0.09 ng/mg); assay type: ADME, cell-based; settings: fibroblast, 1000 µM
Fibroblast [2] = experiment: Cytotoxicity against human fibroblasts assessed as reduction in cell viability at 0.01 to 3 mM measured after 24 hrs by MTT assay; assay type: toxicity, cell-based; settings: 3000 µM, dose 0.01-3 mM
[3] = Drug uptake in human D54 cells assessed as boron accumulation at 1 mM measured after 2 hrs per mg of cell pellet by ICP-MS analysis (reference value: 0.15 +/- 0.19 ng/mg); assay type: ADME, cell-based; settings: d54, 2 h, 1000 µM
[4] = Drug uptake in human D54 cells assessed as boron accumulation at 1 mM measured after 24 hrs per mg of cell pellet by ICP-MS analysis (reference value: 0.15 +/- 0.19 ng/mg); assay type: ADME, cell-based; settings: d54, 24 h, 1000 µM
Fibroblast [5] = experiment: Cytotoxicity against human fibroblasts assessed as reduction in cell viability at 0.01 to 3 mM measured after 72 hrs by MTT assay relative to control; assay type: toxicity, cell-based; settings: 3000 µM, dose 0.01-3 mM

Row | SMILES | Activity (D54 cell line) [%] | Drug uptake [1] [ng/mg] | Activity (Fibroblast [2]) | Drug uptake [3] [ng/mg] | Drug uptake [4] [ng/mg] | Activity (Fibroblast [5]) [%]
1 | OB1CC[C@H]2OC(O)[C@H](O)[C@@H](O)[C@@H]2O1 (some centres not stated) | 15 | 0.85 | Non-Toxic | 3 | 6 | -10
2 | N[C@@H](Cc1ccc(B(O)O)cc1)C(=O)O |  |  |  |  |  | -19
